# Test system: mice with hyperuricemia
# Experiment: Effect on serum uric acid (UA) levels in mice with hyperuricemia
# Type: in vivo
# Conditions: 0.02 g/kg orally once a day, 7 days; hypoxanthine + potassium oxonate model; model group 768.30, blank 145.80
# Excerpt: 60 mice (each mouse with a weight of (20±2) g) are taken and randomly divided into 6 groups, with 10 mice in each group, denoted as a blank group, a model group, a benzbromarone group, a high dose traditional Chinese medicine fermented preparation group, a medium dose traditional Chinese medicine fermented preparation group, and a low dose traditional Chinese medicine fermented preparation group. After 5 days of adaptive breeding, except for the blank group (injected with an equal volume of physiological saline), the mice in other groups are injected intraperitoneally with 0.3 g/kg/mouse of hypoxanthine +0.05 g/kg/mouse of potassium oxonate (i.e., oxonic acid potassium salt) daily for model replication, for 7 consecutive days. At the same time, the mice in the benzbromarone group are administered orally at a dose of 0.02 g/kg/mouse once a day, the mice in the high, medium and low dose traditional Chinese medicine fermented preparation groups are administered orally at a dose of 2 mL/kg/mouse, 1 mL/kg/mouse, and 0.5 mL/kg/mouse once, respectively, while the mice in the blank group and the model group are given physiological saline (1 mL/kg) orally, for 7 consecutive days. After 7 days, tail vein blood is collected from the mice in all groups, and then centrifuged to separate […] to obtain serum, the serum is taken to measure serum UA levels.
structure (smiles),measurement,value
"CCc1oc2ccccc2c1C(=O)c1cc(Br)c(O)c(Br)c1 [Benzbromarone, benzbromarone]",Serum UA level,302.30 µmol/L

# Source: US20240415915A1, “TRADITIONAL CHINESE MEDICINE FERMENTED PREPARATION FOR PREVENTING AND TREATING GOUT, ITS PREPARATION METHOD AND APPLICATION” (priority 2023, published 2024)
